Broadly, the Kd is a measure of binding affinity in units of concentration. A lower Kd goes with a tighter complex.

Test [1] in a line: Binding affinity to gamma (312-324) epitope of human fibrinogen measured at flow rate of 5 ul/min by Biacore X system. For orientation: In SPR one partner is held on a chip, and binding of the other changes the refractive index at the surface.
A short description of test [2]: Binding affinity to gamma (312-324) epitope of human fibrinogen measured at flow rate of 30 ul/min by Biacore X system.
Test [3] is described as follows: Binding affinity to gamma (312-324) epitope of human fibrinogen by Biacore X system.

Peptide text beside a SMILES is read from it.

Take `N=C(N)NCCC[C@H](NC(=O)[C@H](CC(=O)O)NC(=O)[C@@H](N)CCCCN)C(N)=O` (H-Lys-Asp-Arg-NH2): the Kd in test [1] came to 52.6 µM; in test [2], 16.2 µM; in test [3], 34.4 µM.
Regarding `NCCCC[C@H](NC(=O)[C@H](CCC(=O)O)NC(=O)[C@@H](N)CCCCN)C(N)=O` (H-Lys-Glu-Lys-NH2), the Kd in test [1] was determined as 35 µM; in test [2], 15 µM; in test [3], 25 µM.
Take Ac-RDKDR-OH: the Kd in test [1] was found to be 30.4 µM; in test [2] it was 16.8 µM; in test [3] it was 23.6 µM.
The like results for `N=C(N)NCCC[C@H](NC(=O)[C@H](CCC(=O)O)NC(=O)[C@@H](N)CCCCN)C(N)=O` (H-Lys-Glu-Arg-NH2) were, in that order, 13 µM, 21.9 µM and 17.5 µM.
Taken in the same sequence, the figures for H-RDKDR-NH2 were 0.3 µM, 0.2 µM and 0.25 µM.
